Measured values from patent EP0702683B1, “06-SUBSTITUTED GUANINE DERIVATIVES, A PROCESS FOR THEIR PREPARATION AND THEIR USE IN TREATING TUMOUR CELLS” (Cancer Research Technology Limited, priority 1993, dated 1994).
Like-named read-outs stand apart in the source and are kept apart here.

Legend:
ATase [1] = biological target: T1, ATase (Rattus norvegicus, UniProt P24528); assay: Inactivation of ATase activity in Yoshida cells; format: cell-based
T1 construct: endogenous in cells; host or cells: Yoshida
T1 sequence (P24528 1-209): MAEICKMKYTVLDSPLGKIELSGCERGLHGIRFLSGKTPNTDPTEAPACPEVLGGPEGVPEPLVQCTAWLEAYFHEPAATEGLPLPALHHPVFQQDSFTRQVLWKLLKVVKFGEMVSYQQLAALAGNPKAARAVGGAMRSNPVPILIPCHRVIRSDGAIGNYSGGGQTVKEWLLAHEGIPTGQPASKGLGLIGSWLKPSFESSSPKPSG
Description: (§1) Mammalian cells were cultured under standard conditions. For example, Raji (a human lymphoblastoid cell line from a Burkitt's lymphoma) cells were grown in suspension culture in RPMI medium supplemented with 10% horse serum. A375M cells are human melanoma cells from which the xenografts described below were established following subcutaneous injection into nude mice: WiDr cells are a human colon carcinoma cell line: Hamster+120 cells are a mitozolomide-selected subline of a Chinese hamster lung fibroblast V79 cell line called RJKO: Yoshida cells are a rat carcinosarcoma cell line and YRbus is a busulphan resistant subline thereof: XP cells are an SV40-transformed fibroblast cell line originally from the skin of a Xeroderma pigmentosum patient, pHMGhAT2b cells are a clone of these cells that have been transfected with a mammalian cell expression vector containing the human ATase cDNA and pHMGla cells are a clone that have been transfected with the expression vector only (i.e. one not containing the human ATase cDNA). Cell pellets were resuspended in cold (4°C) buffer I containing 2 µg/ml leupeptin and sonicated for 10 seconds at 12 µ peak to peak distance. After cooling in ice, the cells were sonicated for a further 10 seconds at 18 µ. Immediately after sonication, 0.01 volumes of 8.7 mg/ml phenylmethanesulphonylfluoride in ethanol was added and the sonicates centrifuged at 15 000 g for 10 minutes at 4°C to pellet cell debris. The supernatant was kept for determination of ATase activity (see below).
(§2) Cells were diluted to 10^6/ml in culture medium containing either the appropriate concentration of inactivator or an equivalent volume of vehicle (DMSO). Following incubation at 37°C for 2 hours the cells were harvested by centrifugation, washed twice with PBS and the resulting cell pellets (between 1-2 x 10^7 per pellet) stored at -20°C. ATase activity was determined as described above, in duplicate sonicated cell extracts and expressed as the percentage activity remaining based on that present in the untreated controls (for example 350-450 fm/mg in Raji cells).

ATase [2] = biological target: T2, ATase (Homo sapiens, UniProt P16455); assay: Inactivation of ATase activity in XP cells; format: cell-based; parameters: endogenous in cells; host or cells: Raji
T2 sequence (P16455 1-207): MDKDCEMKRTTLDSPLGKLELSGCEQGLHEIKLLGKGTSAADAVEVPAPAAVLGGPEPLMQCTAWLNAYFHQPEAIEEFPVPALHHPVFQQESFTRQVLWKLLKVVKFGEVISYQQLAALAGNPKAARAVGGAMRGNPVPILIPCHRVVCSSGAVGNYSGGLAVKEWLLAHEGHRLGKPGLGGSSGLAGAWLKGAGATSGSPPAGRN
Description: as §1, with “Immediately after sonication, 0.01 volumes of 8.7 mg/ml phenylmethanesulphonylfluoride in ethanol was added and the sonicates centrifuged at 15 000 g for 10 minutes at 4°C to pellet cell debris. The supernatant was kept for determination of ATase activity (see below).” left out

A375M cells = assay: Sensitization of A375M cells to BCNU (MTT assay); format: cell-based, human; conditions: for A375M sensitization (D50.^C/D50.^I) 0.5uM: inactivator 0.5uM 2 hours before; for A375M sensitization (D50.^C/D50.^I) 5.0uM: inactivator 5.0uM 2 hours before
Description: Sensitization of A375M cells to the cytotoxic effects of BCNU was analysed by MTT assay ^24 differing from the XTT assay described above as follows. […] After 6 days MTT solution (4mg/ml) was added and cells incubated for 3 hours at 37°C. Medium was aspirated and the resulting purple formazan crystals were solubilised in DMSO (120μl) and cell viability was quantified by measuring absorption at 540nm using a microtitre plate reader.

Raji cells = assay: Sensitization of Raji cells to BCNU (XTT assay); format: cell-based, human; conditions: for Raji sensitization (D90.^C/D90.^I) 1.0µM / Raji sensitization (D90.^C/D90.^I) O.1µM: BCNU, 2 hour pretreatment; for Raji sensitization (D90.^C/D90.^I) 1.0µM: inactivator 1.0µM; for Raji sensitization (D90.^C/D90.^I) O.1µM: inactivator O.1µM; for sensitizing Raji cells to the growth inhibitory effects of BCNU, compared with BeG: Figure 2, in words
Description: Following a 2 hour incubation at 37°C, medium containing either increasing doses of BCNU, temozolomide or equivalent vehicle was added and the cells allowed to grow for 6 days. At this time XTT solution was added and the cells incubated for a further 4 hours at 37°C. The resulting red/orange formazan reaction product was quantified by measuring absorption at 450nm on a microtitre platereader.

[3] = Growth inhibition of Xeroderma pigmentosum cells by inactivator alone; format: cell-based, human; conditions: human, xeroderma pigmentosum cells; Figs 5 & 6; read-out: toxic concentrations in XP cells relative to those at which sensitization to BCNU was observed
Description: (§3) In order to assess the effects on cell growth alone, Xeroderma pigmentosum cells and Chinese Hamster V79 cells were exposed to increasing concentrations (up to 600µM) of selected inactivators for 2h at 37°. In some cases, the inactivators were allowed to undergo hydrolysis at 37°C for 20 hours and then added to […] in order to assess the extent to which the decomposition products of the agents might inhibit cell growth. After 6 days the extent of cell growth was determined as described above.

ATase [4] = assay: Inactivation of ATase in mammalian cells, summary over cell lines; format: cell-based; conditions: range over the cell lines of Table 5 (table head: µM; no unit in the sentence); read-out: I50 values for ATase inactivation in human, rat and Chinese hamster cells
Description: Mammalian cells were cultured under standard conditions. For example, Raji (a human lymphoblastoid cell line from a Burkitt's lymphoma) cells were grown in suspension culture in RPMI medium supplemented with 10% horse serum. […]
as §2, with “Following incubation at 37°C for 2 hours the cells were harvested by centrifugation, washed twice with PBS and the resulting cell pellets (between 1-2 x 10^7 per pellet) stored at -20°C.” left out

ATase [5] = biological target: T2, ATase; assay: Inactivation of ATase activity in WiDr cells; format: cell-based; parameters: endogenous in cells; host or cells: Raji
Description: as §1, with “Immediately after sonication, 0.01 volumes of 8.7 mg/ml phenylmethanesulphonylfluoride in ethanol was added and the sonicates centrifuged at 15 000 g for 10 minutes at 4°C to pellet cell debris. The supernatant was kept for determination of ATase activity (see below).” left out

[6] = Stability of inactivators at 37°C (spectrophotometric half life); format: physicochemical
Description: Inactivators (10mM in DMSO) were diluted to 0.1mM in prewarmed degassed buffer I (1mM EDTA, 50mM Tris pH 8.3) or PBS (pH 7-7.2). […] Samples were immediately transferred to a CARY13 spectrophotometer (cuvette block held at 37°C) and scanned at an appropriate wavelength (according to the spectral properties of the compound) at 3-10 minute intervals for up to 80 hours. The results were expressed as percentage absorbance change versus time and T1/2 values (half life) extrapolated from this.

[7] = test system: Chinese hamster V79 cells; assay: Growth inhibition of V79 cells by inactivator alone; format: cell-based
Description: as §3

ATase [8] = biological target: T2, ATase; assay: Inactivation of ATase activity in Raji cells; format: cell-based; parameters: endogenous in cells; host or cells: Raji
Description: as §1
Cells were diluted to 10^6/ml in culture medium containing either the appropriate concentration of inactivator or an equivalent volume of vehicle (DMSO). Following incubation at 37°C for 2 hours the cells were harvested by centrifugation, washed twice with PBS and the resulting cell pellets (between 1-2 x 10^7 per pellet) stored at -20°C.

[9] = 0.1mM in PBS (pH 7-7.2), read-out: T1/2(h) in PBS (converted)
[10] = 0.1mM in buffer I (1mM EDTA, 50mM Tris pH 8.3), read-out: T1/2(h) in Buffer I (converted)

Structure (SMILES) | A375M sensitization (D50.^C/D50.^I) 0.5uM (A375M cells) | A375M sensitization (D50.^C/D50.^I) 5.0uM (A375M cells) | Raji sensitization (D90.^C/D90.^I) 1.0µM (Raji cells) | Raji sensitization (D90.^C/D90.^I) O.1µM (Raji cells) | selectivity ratio [3] | IC50 (ATase [4]) [µM] | half-life at 100 µM [6, 9] [h] | half-life at 100 µM [6, 10] [h] | IC50 (ATase [8]) [µM] | other results
Nc1nc(OCc2ccco2)c2nc[nH]c2n1 [B.4203, O^6-furfurylguanine] | 2.0 | 2.5 | 5.7 | 2.6 | ≥ 100 | 0.04 to 0.12 | 0.17 | 0.3 | 0.04 | IC50 (ATase [1]; Rat Yoshida cells, 2 hours at 37°C, read-out: Inactivation of ATase in Mammalian Cells I50(µM) Rat Yoshida): 0.06 µM; IC50 (ATase [2]; Human XP cells, 2 hours at 37°C, read-out: Inactivation of ATase in Mammalian Cells I50(µM) Human XP): 0.06 µM; IC50 (ATase [5]; Human WiDr cells, 2 hours at 37°C, read-out: Inactivation of ATase in Mammalian Cells I50(µM) Human WiDr): 0.08 µM; toxic concentrations in V79 cells relative to those at which sensitization to BCNU was observed ([7]; Figs 5 & 6): at least 100 times; IC50 (ATase [8]; Human Raji cells, 2 hours at 37°C (Table 5), read-out: Inactivation of ATase in Mammalian Cells I50(µM) Human Raji): 0.04 µM
Nc1nc(OCc2cccs2)c2nc[nH]c2n1 [B.4205, O^6-thenylguanine] | 2.8 | 3.5 | 8.0 | 8.4 | ≥ 100 | 0.02 to 0.03 | 0.6 | 1.2 | 0.02 | IC50 (ATase [1]): 0.02 µM; IC50 (ATase [2]): 0.03 µM; A375M sensitization (D50.^C/D50.^I) 1.0uM (A375M cells; inactivator 1.0uM 2 hours before): 2.3; sensitizing Raji cells to the growth inhibitory effects of BCNU, compared with BeG (Raji cells; 0.1uM inactivator): more effective than BeG; sensitizing Raji cells to the growth inhibitory effects of BCNU, compared with BeG (Raji cells; 1.0uM inactivator): equally effective; IC50 (ATase [5]): 0.02 µM; doses producing some growth inhibition of V79 cells ([7]; inactivator alone, up to 600µM, 2h at 37°, Figure 5): no such effects were seen; IC50 (ATase [8]; read-out: Inactivation of ATase in Mammalian Cells I50(µM) Human Raji, Human Raji cells, 2 hours at 37°C (Table 5)): 0.02 µM
